One test concerns TPA-induced ear edema. The test is described as follows: TPA-induced ear edema model. In kind it is in vivo, ICR mouse. As to conditions: topical 5% in acetone (indomethacin 0.5 mg/ear), 4 hours after TPA; for Δ Ear thickness (um ± S.D): TPA control 176 ± 35. The protocol:
To observe the anti-inflammatory effects of chalcone or its derivatives edema was induced in the ear by topical application of 10 ul of TPA (Tetradecanoylphorbol acetate) in acetone (2.5 ug/ear) to both the inner and outer surface of one ear of each 6-week-old ICR mouse. 5% of Chalcone or its derivatives diluted with acetone were applied separately to each ear topically immediately after TPA. The reference drug, indomethacin (0.5 mg/ear), was administered as a positive control. Ear thickness was measured before and 4 hours after treatment with the irritant using a micrometer (Mitutoyo Co.). Ear thickness was expressed as the mean of the difference between thickness before and after challenge. Inhibition ratio percentage of edema was expressed as the reduction in thickness with respect to the control treated only with TPA. As shown in FIG. 6 and Table 2, chalcone or its derivatives suppressed the TPA-induced ear edema.

In another test the target is T1, MMP-2 (Homo sapiens, UniProt P08253).
T1 construct: made in house; host or cells: Sf21 insect cells, baculovirus (pBlueBac4.5)
T1 sequence (P08253 110-660): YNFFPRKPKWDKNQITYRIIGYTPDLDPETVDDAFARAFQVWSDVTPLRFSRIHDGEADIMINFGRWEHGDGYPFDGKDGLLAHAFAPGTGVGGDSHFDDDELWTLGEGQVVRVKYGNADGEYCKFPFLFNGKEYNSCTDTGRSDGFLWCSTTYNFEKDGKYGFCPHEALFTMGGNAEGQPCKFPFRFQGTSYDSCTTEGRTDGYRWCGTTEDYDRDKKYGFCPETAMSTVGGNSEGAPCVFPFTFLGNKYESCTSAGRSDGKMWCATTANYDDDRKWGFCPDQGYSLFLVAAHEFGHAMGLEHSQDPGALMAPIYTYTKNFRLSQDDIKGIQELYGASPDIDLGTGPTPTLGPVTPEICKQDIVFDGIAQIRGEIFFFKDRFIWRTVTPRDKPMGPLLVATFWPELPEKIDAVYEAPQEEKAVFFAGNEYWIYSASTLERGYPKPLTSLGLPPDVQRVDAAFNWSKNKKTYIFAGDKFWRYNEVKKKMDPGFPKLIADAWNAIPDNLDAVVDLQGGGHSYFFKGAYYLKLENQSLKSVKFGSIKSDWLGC
The experiment in a line: MMP-2 spectrofluorometric enzyme activity assay. It counts as biochemical. The conditions noted are these: 50 μM compound. The procedure: (§1) MMP-1, MMP-2, MMP-9 and MMP-13 were cloned and prepared from insect cells (Sf21 insect cell) by using a Baculovirus system.
(§2) Each cDNA for corresponding MMPs was cloned to a pBlueBac4.5 transfer vector (Invitrogen, Cat no. V1995-20), and then transfected to Sf21 cells with a Bac-N-Blue Transfection Kit (Invitrogen, Cat no. K855-01). Sf21 cells were incubated with a TNM-FH (Sigma, St. Louis, Mo., U.S.A) media containing 10% fetal bovine serum at 27° C., then harvested and re-suspended at a concentration of 10^7 cell/Ml. The cell suspension was incubated with a virus containing the cloned gene for 1 hr at room temperature. Infected Sf21 cells were grown for 72 hrs and the medium was recovered, and the MMP was purified. MMP-2 (GENEBANK No. XM—048244) and MMP-9 (GENEBANK No. XM—009491) were recovered from a gelatin-sepharose affinity column (Sigma, G5384) by eluting with 5% DMSO-containing buffer. MMP-1 (GENEBANK NO. XM—040735) and MMP-13 (GENEBANK NO. NM_002427) were purified with SP-sepharose column (Pharmacia, 17-02729-01) chromatography.
(§3) In order to investigate MMP inhibition by chalcone or its derivatives, MMP enzyme activity was assayed by a spectrofluorometric method using Perkin-Elmer LS50B.
(§4) Purified MMP-1, MMP-2, MMP-9 and MMP-13 were used after activation with 1 mM APMA before assay.
(§5) The substrate for MMP-1 was 2,4-dinitrophenyl-Pro-Leu-Ala-Leu-Trp-Ala-Arg-OH (Calbiochem). 2,4-dinitrophenyl-Pro-Leu-Met-Trp-Ser-Arg-OH (Calbiochem) was used for MMP-2 and MMP-9 activity assay. As a substrate for MMP-13, MCA-Pro-Cha-Gly-Nva-His-Ala-Dpa-NH2 (Calbiochem) was used [MCA=methyl coumarylamide; Cha=L-cyclohexylalanine; Nva=L-norvaline; Dpa=3-(2,4-dinitrophenyl)-L-2,3-diaminoproprionic acid].
(§6) As a control, 2 Ml of reaction buffer (50 mM Tricine, pH 7.5, 10 mM CaCl2, 200 mM NaCl) comprising DMSO, 10 nM of enzyme and 10 μM of substrate was prepared in a cuvette. Fluorescence intensity was measured for 5-10 min at room temperature with a spectrofluorometer.
(§7) 50 μM Chalcone or its derivatives were added to a reaction buffer containing a substrate and enzyme, and fluorescence intensity was measured in the same manner.

Another test concerns the target T2, MMP-13 (Homo sapiens, UniProt P45452).
T2 construct: made in house; host or cells: Sf21 insect cells, baculovirus (pBlueBac4.5)
The test is described as follows: MMP-13 spectrofluorometric enzyme activity assay. As to conditions: 50 μM compound. In kind it is biochemical. The protocol: as §1, §2, §3, §4, §5, §6, §7

The test system of test [1] is human umbilical vein endothelial cells (HUVECs). The test is described as follows: Tube formation of HUVEC on Matrigel. In kind it is cell-based. As to conditions: 50 μM, 8-16 hrs. An excerpt: The effect of chalcone or its derivatives on human endothelial cells was investigated to evaluate the biological effect of chalcones as MMP inhibitors. Since MMPs are responsible for the degradation of extracellular matrix, chalcone or its derivatives can inhibit the formation of tubular network of vessel, which represent migration and differentiation of endothelial cell. Blood vessel endothelial cells, human umbilical vein endothelial cells (HUVECs), were isolated from freshly obtained cords after cesarean section according to Grants' method (Grants D. S., et al., Cell, 58, pp933-943, 1989). They were identified by immunocytochemical staining with anti-Factor VIII antibody. HUVECs cultured on Matrigel (BD Bioscience, Bedford, Mass., USA) were treated with 50 μM of chalcone or its derivatives, and further incubated at 37° C. for 8-16 hrs. As a control, the procedure was repeated with the solvent of the above compounds.

Regarding `O=C(C=Cc1ccccc1O)c1ccccc1` [2-hydroxy chalcone, 2-hydroxychalcone (1-phenyl-3-(2-hydroxyphenyl)prophenone)], in the test with TPA-induced ear edema, the “Inhibition ratio (%) of ear edema” value worked out at 58.0% and the “Δ Ear thickness (um ± S.D)” value was 74 ± 20 um. In addition, the “MMP-2 inhibition (% inhibition)” value on MMP-2 was found to be 90.4 % inhibition. Moreover, the “MMP-13 inhibition (% inhibition)” value on MMP-13 is reported as 89.9 % inhibition.
As to `COc1ccc(C(=O)C=Cc2ccccc2)c(OC)c1` [2′,4′-dimethoxy chalcone, 2′,4′-dimethoxychalcone (1-(2,4-dimethoxyphenyl)-3-phenylprophenone)], the “MMP-2 inhibition (% inhibition)” value at MMP-2 is 92.5 % inhibition. Moreover, the “MMP-13 inhibition (% inhibition)” value at MMP-13 is reported as 83.4 % inhibition.
Consider `O=C(C=Cc1ccc(O)cc1)c1ccccc1` [4-hydroxy chalcone, 4-hydroxychalcone (1-phenyl-3-(4-hydroxyphenyl)prophenone)], for which, on MMP-2, the “MMP-2 inhibition (% inhibition)” value stood at 95.9 % inhibition. Also, at MMP-13, the “MMP-13 inhibition (% inhibition)” value worked out at 94.5 % inhibition.
For `COc1ccc(C=CC(=O)c2ccccc2)cc1` [4-methoxy chalcone, 4-methoxychalcone (1-phenyl-3-(4-methoxyphenyl)prophenone)], in the test with TPA-induced ear edema, the “Inhibition ratio (%) of ear edema” value is reported as 56.2% and the “Δ Ear thickness (um ± S.D)” value worked out at 77 ± 19 um. In addition, on MMP-2, the “MMP-2 inhibition (% inhibition)” value is 92.7 % inhibition. Besides, the “MMP-13 inhibition (% inhibition)” value on MMP-13 was 83.9 % inhibition.
With `COc1ccc(C(=O)C=Cc2ccccc2)cc1` [4′-methoxy chalcone, 4′-methoxychalcone (1-(4-methoxyphenyl)-3-phenylprophenone)], in the test on TPA-induced ear edema, the “Inhibition ratio (%) of ear edema” value is listed as 40.9% and the “Δ Ear thickness (um ± S.D)” value came to 104 ± 21 um. In addition, the “MMP-2 inhibition (% inhibition)” value on MMP-2 turned out to be 99.1 % inhibition. For the same molecule, the “MMP-13 inhibition (% inhibition)” value at MMP-13 worked out at 86.8 % inhibition. The “Tubular (microvascular) network formation of HUVEC” value in test [1] was “microvascular network was disconnected”.
Regarding `COc1ccc2c(c1)c(CC(=O)O)c(C)n2C(=O)c1ccc(Cl)cc1` [Indomethacin, reference compound], in the test on TPA-induced ear edema, the “Inhibition ratio (%) of ear edema” value is reported as 72.7% and the “Δ Ear thickness (um ± S.D)” value is listed as 48 ± 25 um.
As to `O=C(CCc1ccc(O)cc1)c1c(O)cc(O)cc1O` [Phloretin], the “MMP-2 inhibition (% inhibition)” value at MMP-2 was 87.2 % inhibition. Moreover, the “MMP-13 inhibition (% inhibition)” value at MMP-13 was determined as 77.0 % inhibition.

For the origin of these results see patent US7572831B2, “Composition containing chalcone” (Angiolab, Inc., priority 2002, dated 2009).
